Data taken from patent US12187723B2 (BRISTOL-MYERS SQUIBB COMPANY, priority 2019, dated 2025).
pIC50: −log10 of the molar value.

These molecules were tested against T1, human TLR8 (Homo sapiens, UniProt Q9NR97) (assay: TLR8 inhibition reporter assay (HEK-Blue SEAP)). Details: HEK-Blue cells overexpressing human TLR8, R848 15.9 μM, 22 hour incubation.
T1 construct: host or cells: HEK-Blue cells
T1 sequence (Q9NR97 27-1041): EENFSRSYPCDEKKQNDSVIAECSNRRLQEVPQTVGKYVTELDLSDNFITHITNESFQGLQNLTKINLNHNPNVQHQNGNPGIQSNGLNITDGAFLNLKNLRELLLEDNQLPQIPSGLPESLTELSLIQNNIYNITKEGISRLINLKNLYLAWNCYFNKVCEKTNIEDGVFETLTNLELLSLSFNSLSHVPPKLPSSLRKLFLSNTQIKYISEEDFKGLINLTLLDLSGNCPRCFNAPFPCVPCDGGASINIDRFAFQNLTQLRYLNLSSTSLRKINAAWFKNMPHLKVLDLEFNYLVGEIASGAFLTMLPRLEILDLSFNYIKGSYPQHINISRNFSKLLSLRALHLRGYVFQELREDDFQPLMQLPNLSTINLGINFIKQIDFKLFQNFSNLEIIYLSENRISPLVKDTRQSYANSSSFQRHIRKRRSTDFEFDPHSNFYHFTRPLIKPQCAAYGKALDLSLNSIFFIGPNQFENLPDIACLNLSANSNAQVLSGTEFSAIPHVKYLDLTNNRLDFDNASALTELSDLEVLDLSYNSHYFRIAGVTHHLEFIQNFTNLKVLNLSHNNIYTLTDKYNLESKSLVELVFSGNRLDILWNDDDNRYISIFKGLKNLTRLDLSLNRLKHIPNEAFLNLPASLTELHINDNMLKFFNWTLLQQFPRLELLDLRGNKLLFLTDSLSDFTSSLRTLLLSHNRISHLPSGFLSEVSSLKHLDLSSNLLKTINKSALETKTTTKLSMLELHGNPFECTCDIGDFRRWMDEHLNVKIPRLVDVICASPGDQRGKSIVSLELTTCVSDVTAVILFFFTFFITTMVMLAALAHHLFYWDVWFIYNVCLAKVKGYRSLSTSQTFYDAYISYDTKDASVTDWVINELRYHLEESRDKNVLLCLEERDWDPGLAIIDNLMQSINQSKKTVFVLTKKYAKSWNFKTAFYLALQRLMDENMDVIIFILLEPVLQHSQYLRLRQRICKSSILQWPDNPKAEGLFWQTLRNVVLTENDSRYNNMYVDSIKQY
Type: cell-based
Method in brief: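 Screening used HEK-Blue cells overexpressing one human TLR (7, 8 or 9) and an IFN-β minimal promoter–NF-κB/AP-1 SEAP construct. Stimulation lasted 22 h at 37 °C with receptor-specific agonist: gardiquimod, R848 or ODN2006 at 7.5 μM, 15.9 μM and 5 nM.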

Point of comparison: `CCCN1CCC[C@H](n2c(=O)[nH]c3cc(-c4cc(OC)c5ncnn5c4)c(C(C)C)cc32)C1` [Example 121, (S)-6-isopropyl-5-(8-methoxy-[1,2,4]triazolo[1,5-a]pyridin-6-yl)-1-(1-propylpiperidin-3-yl)-1,3-dihydro-2H-benzo[d]imidazol-2-one], pIC50 8.74. Against it:
- COc1cc(-c2cc3[nH]c(=O)n(C4CCN(C5CCC5)CC4)c3cc2C(C)C)cn2ncnc12 [Example 156, 1-(1-cyclobutylpiperidin-4-yl)-6-isopropyl-5-(8-methoxy-[1,2,4]triazolo[1,5-a]pyridin-6-yl)-1,3-dihydro-2H-benzo[d]imidazol-2-one] — 0.42 log units lower, 8.32
- Cc1cc2c(cc1-c1cc(C)c3ncnn3c1)[nH]c(=O)n2C1CCN(C)CC1 [Example 3, 6-methyl-5-(8-methyl-[1,2,4]triazolo[1,5-a]pyridin-6-yl)-1-(1-methylpiperidin-4-yl)-1,3-dihydro-2H-benzo[d]imidazol-2-one] — 1.31 log units lower, 7.43
- CCCN1CCC[C@@H](n2c(=O)[nH]c3cc(-c4cc(OC)c5ncnn5c4)c(C(F)(F)F)cc32)C1 [Example 115, (R)-5-(8-methoxy-[1,2,4]triazolo[1,5-a]pyridin-6-yl)-1-(1-propylpiperidin-3-yl)-6-(trifluoromethyl)-1,3-dihydro-2H-benzo[d]imidazol-2-one] — 0.90 log units lower, 7.84
- Cc1cc(-c2ccc3c(c2)[nH]c(=O)n3C2CCN(C(C)C)CC2)cn2ncnc12 [Example 5, 1-(1-isopropylpiperidin-4-yl)-5-(8-methyl-[1,2,4]triazolo[1,5-a]pyridin-6-yl)-1,3-dihydro-2H-benzo[d]imidazol-2-one] — lower, < 5.51
- COc1cc(-c2cc3[nH]c(=O)n([C@@H]4CCCN(C)C4)c3cc2C(F)(F)F)cn2ncnc12 [Example 114, (R)-5-(8-methoxy-[1,2,4]triazolo[1,5-a]pyridin-6-yl)-1-(1-methylpiperidin-3-yl)-6-(trifluoromethyl)-1,3-dihydro-2H-benzo[d]imidazol-2-one] — 0.80 log units higher, 9.54
- CCCN1CCC[C@@H](n2c(=O)[nH]c3cc(-c4cc(OC)c5ncnn5c4)c(C(C)C)cc32)C1 [Example 134, (R)-6-isopropyl-5-(8-methoxy-[1,2,4]triazolo[1,5-a]pyridin-6-yl)-1-(1-propylpiperidin-3-yl)-1,3-dihydro-2H-benzo[d]imidazol-2-one] — 0.51 log units lower, 8.23
- COc1cc(-c2cc3[nH]c(=O)n([C@H]4CCCN(CC5CC5)C4)c3cc2C(C)C)cn2ncnc12 [Example 127, (S)-1-(1-(cyclopropylmethyl)piperidin-3-yl)-6-isopropyl-5-(8-methoxy-[1,2,4]triazolo[1,5-a]pyridin-6-yl)-1,3-dihydro-2H-benzo[d]imidazol-2-one] — within 0.2 log units, 8.55
- Cc1c(-c2cc3[nH]c(=O)n([C@@H]4CCCN(C)C4)c3cc2C(C)C)cn2ncnc2c1C [Example 147, (R)-5-(7,8-dimethyl-[1,2,4]triazolo[1,5-a]pyridin-6-yl)-6-isopropyl-1-(1-methylpiperidin-3-yl)-1,3-dihydro-2H-benzo[d]imidazol-2-one] — 1.11 log units lower, 7.63
- COc1cc(-c2cc3[nH]c(=O)n(C4CCN(C(C)C)CC4)c3cc2C)cn2ncnc12 [Example 10, 1-(1-isopropylpiperidin-4-yl)-5-(8-methoxy-[1,2,4]triazolo[1,5-a]pyridin-6-yl)-6-methyl-1,3-dihydro-2H-benzo[d]imidazol-2-one] — 1.69 log units lower, 7.05
- COc1cc(-c2cc3[nH]c(=O)n([C@@H]4CCCN(CC5CC5)C4)c3cc2C(C)C)cn2ncnc12 [Example 142, (R)-1-(1-(cyclopropylmethyl)piperidin-3-yl)-6-isopropyl-5-(8-methoxy-[1,2,4]triazolo[1,5-a]pyridin-6-yl)-1,3-dihydro-2H-benzo[d]imidazol-2-one] — within 0.2 log units, 8.66
- CCCN1CCC(n2c(=O)[nH]c3cc(-c4cc(C)c5ncnn5c4)c(C)cc32)CC1 [Example 7, 6-methyl-5-(8-methyl-[1,2,4]triazolo[1,5-a]pyridin-6-yl)-1-(1-propylpiperidin-4-yl)-1,3-dihydro-2H-benzo[d]imidazol-2-one] — 1.43 log units lower, 7.31
- CCC(CC)CN1CCC[C@@H](n2c(=O)[nH]c3cc(-c4cc(OC)c5ncnn5c4)c(C(F)(F)F)cc32)C1 [Example 117, (R)-1-(1-(2-ethylbutyl)piperidin-3-yl)-5-(8-methoxy-[1,2,4]triazolo[1,5-a]pyridin-6-yl)-6-(trifluoromethyl)-1,3-dihydro-2H-benzo[d]imidazol-2-one] — 1.26 log units lower, 7.48
- CCCN(CCC)[C@H]1CC[C@@H](n2c(=O)[nH]c3cc(-c4cc(OC)c5ncnn5c4)c(CC)cc32)CC1 [Example 168, 1-((1s,4s)-4-(dipropylamino)cyclohexyl)-6-ethyl-5-(8-methoxy-[1,2,4]triazolo[1,5-a]pyridin-6-yl)-1,3-dihydro-2H-benzo[d]imidazol-2-one] — within 0.2 log units, 8.82
- COc1cc(-c2cc3[nH]c(=O)n([C@@H]4CCCN(C5COC5)C4)c3cc2C(F)(F)F)cn2ncnc12 [Example 113, (R)-5-(8-methoxy-[1,2,4]triazolo[1,5-a]pyridin-6-yl)-1-(1-(oxetan-3-yl)piperidin-3-yl)-6-(trifluoromethyl)-1,3-dihydro-2H-benzo[d]imidazol-2-one] — 1.79 log units lower, 6.95
- Cc1cc(-c2cc(C)c3ncnn3c2)cc2[nH]c(=O)n(C3CCN(CC(=O)N(C)C)CC3)c12 [Example 109, N,N-dimethyl-2-(4-(7-methyl-5-(8-methyl-[1,2,4]triazolo[1,5-a]pyridin-6-yl)-2-oxo-2,3-dihydro-1H-benzo[d]imidazol-1-yl)piperidin-1-yl)acetamide] — 2.47 log units lower, 6.27
- Cc1c(-c2cc3[nH]c(=O)n([C@@H]4CCCN(C5COC5)C4)c3cc2C(C)C)cn2ncnc2c1C [Example 146, (R)-5-(7,8-dimethyl-[1,2,4]triazolo[1,5-a]pyridin-6-yl)-6-isopropyl-1-(1-(oxetan-3-yl)piperidin-3-yl)-1,3-dihydro-2H-benzo[d]imidazol-2-one] — 0.52 log units lower, 8.22
- CCCN1CCC(n2c(=O)[nH]c3cc(-c4cc(OC)c5ncnn5c4)c(C(C)C)cc32)CC1 [Example 155, 6-isopropyl-5-(8-methoxy-[1,2,4]triazolo[1,5-a]pyridin-6-yl)-1-(1-propylpiperidin-4-yl)-1,3-dihydro-2H-benzo[d]imidazol-2-one] — 0.72 log units lower, 8.02
- CCN1CCC(n2c(=O)[nH]c3cc(-c4cc(C)c5ncnn5c4)c(C)cc32)CC1 [Example 6, 1-(1-ethylpiperidin-4-yl)-6-methyl-5-(8-methyl-[1,2,4]triazolo[1,5-a]pyridin-6-yl)-1,3-dihydro-2H-benzo[d]imidazol-2-one] — 1.41 log units lower, 7.33
- Cc1cc2c(cc1-c1cc(C)c3ncnn3c1)[nH]c(=O)n2C1CCN(C(=O)CN(C)C)CC1 [Example 101, 1-(1-(dimethylglycyl)piperidin-4-yl)-6-methyl-5-(8-methyl-[1,2,4]triazolo[1,5-a]pyridin-6-yl)-1,3-dihydro-2H-benzo[d]imidazol-2-one] — 1.44 log units lower, 7.30
- CCC(CC)CN1CCC[C@@H](n2c(=O)[nH]c3cc(-c4cc(OC)c5ncnn5c4)c(C(C)C)cc32)C1 [Example 148, (R)-1-(1-(2-ethylbutyl)piperidin-3-yl)-6-isopropyl-5-(8-methoxy-[1,2,4]triazolo[1,5-a]pyridin-6-yl)-1,3-dihydro-2H-benzo[d]imidazol-2-one] — 0.22 log units higher, 8.96
- COc1cc(-c2cc3[nH]c(=O)n([C@@H]4CCCN(C5CCOCC5)C4)c3cc2C(C)C)cn2ncnc12 [Example 143, (R)-6-isopropyl-5-(8-methoxy-[1,2,4]triazolo[1,5-a]pyridin-6-yl)-1-(1-(tetrahydro-2H-pyran-4-yl)piperidin-3-yl)-1,3-dihydro-2H-benzo[d]imidazol-2-one] — 0.25 log units lower, 8.49
- CCC(CC)CN1CCC[C@@H](n2c(=O)[nH]c3cc(-c4cn5ncnc5c(C)c4C)c(C(C)C)cc32)C1 [Example 151, (R)-5-(7,8-dimethyl-[1,2,4]triazolo[1,5-a]pyridin-6-yl)-1-(1-(2-ethylbutyl)piperidin-3-yl)-6-isopropyl-1,3-dihydro-2H-benzo[d]imidazol-2-one] — 1.08 log units lower, 7.66
- COc1cc(-c2cc3[nH]c(=O)n(C4CCN(C5CCOCC5)CC4)c3cc2C(C)C)cn2ncnc12 [Example 158, 6-isopropyl-5-(8-methoxy-[1,2,4]triazolo[1,5-a]pyridin-6-yl)-1-(1-(tetrahydro-2H-pyran-4-yl)piperidin-4-yl)-1,3-dihydro-2H-benzo[d]imidazol-2-one] — 0.95 log units lower, 7.79
